# Experimental data published in PubChem BioAssay (NCI).
#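 How tested: cells in 96-well plates exposed to compound for 48 hours at five concentrations. GI50 is the concentration that inhibits growth by half. TGI: concentration producing complete growth inhibition.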
# What was measured:
# Test in all cases: growth of human tumour cells (NCI), 48 h
# SK-MEL-28 melanoma = system: SK-MEL-28 melanoma
# U251 CNS = system: U251 CNS
# SW-620 colon = system: SW-620 colon
# IGROV1 ovarian = system: IGROV1 ovarian
# EKVX NSCLC = system: EKVX NSCLC
# K-562 leukemia = system: K-562 leukemia
# UACC-62 melanoma = system: UACC-62 melanoma
# UACC-257 melanoma = system: UACC-257 melanoma
# A549 NSCLC = system: A549 NSCLC
# NCI-H23 lung = system: NCI-H23 lung
Compound,TGI (SK-MEL-28 melanoma) [µM],TGI (U251 CNS) [µM],TGI (SW-620 colon) [µM],TGI (IGROV1 ovarian) [µM],TGI (EKVX NSCLC) [µM],TGI (K-562 leukemia) [µM],TGI (UACC-62 melanoma) [µM],TGI (UACC-257 melanoma) [µM],TGI (A549 NSCLC) [µM],TGI (NCI-H23 lung) [µM],GI50 (SK-MEL-28 melanoma) [µM],GI50 (U251 CNS) [µM],GI50 (SW-620 colon) [µM],GI50 (IGROV1 ovarian) [µM],GI50 (EKVX NSCLC) [µM],GI50 (K-562 leukemia) [µM],GI50 (UACC-62 melanoma) [µM],GI50 (UACC-257 melanoma) [µM],GI50 (A549 NSCLC) [µM],GI50 (NCI-H23 lung) [µM]
CCOC(=O)/C(=C/c1ccc(OC)c(OC)c1)C(=O)c1ccccc1,28.5,65,48.5,51.4,67.4,> 100,29.5,33.2,90.2,35.6,–,–,–,–,–,–,–,–,–,–
COc1cc2c(c(OC)c1OC)-c1ccc([O-])c(=O)cc1[C@@H](NC(C)=O)CC2.COc1cc2c(c(OC)c1OC)-c1ccc([O-])c(=O)cc1[C@@H](NC(C)=O)CC2.[Cu+2],> 100,> 100,> 100,47.1,> 100,> 100,11.4,> 100,> 100,> 100,7.82,3.48,3.44,5.59,4.64,2.48,1.86,12.5,6.5,3.73
O=C(O)C1C2C=CC(O2)C1C(=O)Nc1ccccc1 (stereo not given),> 100,> 100,> 100,> 100,> 100,> 100,> 100,> 100,> 100,> 100,–,–,–,–,–,–,–,–,–,–
COc1ccc(-c2cc(-c3ccc(Nc4nc(Nc5ccc(Cl)cc5)nc(Nc5ccc(Cl)cc5)n4)cc3)no2)cc1,41.4,> 100,25.6,42.8,85.6,18.5,57.6,> 100,84.7,28.1,11.7,11.2,11.3,6.3,10.2,2.96,23.1,33.2,16.4,11.7
CCCCCCCCCCCCCCCCC1=CC(=O)C=C(OC)C1=O,> 100,93.8,> 100,> 100,> 100,> 100,> 100,> 100,> 100,> 100,–,–,–,–,–,–,–,–,–,–
Nc1nc(N)c2nc(CNc3ccc(C(=O)CC(CCC(=O)O)C(=O)O)cc3)cnc2n1 (stereo not given),> 100,> 100,> 100,> 100,> 100,> 100,> 100,> 100,> 100,> 100,> 50.7,0.215,0.0332,0.465,0.517,0.0406,0.374,> 25.5,0.153,0.441
COc1ccc(-c2coc3ncnc(N)c23)cc1,> 25,> 25,> 25,> 25,> 25,> 25,> 25,> 25,> 25,> 25,> 25,> 25,> 25,> 25,> 25,> 25,> 25,> 25,> 25,> 25
O=c1c(O)c(-c2ccc(O)c(O)c2)oc2cc(O)ccc12,> 58.4,35.6,60.1,> 62.8,65.8,> 100,39.5,> 67.7,> 100,31.8,–,–,–,–,–,–,–,–,–,–
Cc1cc(N(CCC#N)CCC#N)ccc1/C=C1/CN(N2C(=O)/C(=C/c3ccc(N(CCC#N)CCC#N)cc3C)N=C2c2ccccc2)C(c2ccccc2)=N1,> 100,> 100,> 100,> 100,> 100,> 100,> 100,> 100,> 100,> 100,–,–,–,–,–,–,–,–,–,–
O=S(=O)(NCCNc1cc(-c2cn(-c3ccccc3)nc2-c2cccc(O)c2)ccn1)c1ccc(C(F)(F)F)cc1,9.83,7.28,12.9,5.89,11.8,6.58,3.98,18.4,18.2,15.4,2.71,2.65,3.55,2.36,2.25,2.48,1.78,4.79,3.89,2.97
O=c1oc2ccc(Cl)cc2c(=O)n1-c1ccc(Cl)cc1F,2.29,> 31.6,9.02,20.6,11.3,> 100,0.964,2.31,> 31.6,1.79,0.379,0.566,0.652,0.237,0.688,0.422,0.247,0.496,0.998,0.326
CCOC(=O)C1Cc2c(ccc(OC)c2OC)C(=O)C1N (stereo not given),> 100,> 100,> 100,> 100,36.1,> 100,> 100,> 100,> 100,> 100,–,–,–,–,–,–,–,–,–,–
COc1ccccc1/C=C/C(=O)c1sc(-c2cccnc2)nc1C,> 100,> 100,> 100,> 100,> 100,> 100,> 100,> 100,> 100,> 100,–,–,–,–,–,–,–,–,–,–
COc1ccc(OC)c(/C=C/c2nnc(Nc3ccc(Cl)cc3)o2)c1,> 100,14.3,> 100,> 100,> 100,> 100,> 100,> 100,17.8,> 100,26.8,3.81,18.3,7.69,40.5,92.8,16.2,21.3,3.67,21.7
COc1cc(N2CCC(N3CCN(C)CC3)CC2)ccc1Nc1ncc(Cl)c(Nc2ccccc2P(C)(C)=O)n1,> 100,> 100,19.6,0.784,> 100,> 100,> 72.2,> 100,14.1,> 100,18.5,3.79,1.71,0.216,0.472,3.45,2.94,38.8,1.21,1.62
Oc1c(Br)cc(Br)cc1CN(Cc1cc(Br)cc(Br)c1O)C1CCCCC1,> 100,74.9,> 100,> 100,92.5,> 100,> 100,45.1,> 100,70.4,–,–,–,–,–,–,–,–,–,–
CSc1nc(NC2OCC(OC(C)=O)C(OC(C)=O)C2OC(C)=O)c(N=CC=Nc2c(NC3OCC(OC(C)=O)C(OC(C)=O)C3OC(C)=O)nc(SC)n(C)c2=O)c(=O)n1C (stereo not given),> 100,> 100,> 100,> 100,> 100,> 100,> 100,> 100,> 100,> 100,–,–,–,–,–,–,–,–,–,–
